Reference: patent EP0458363B1, “Fluorinated bis(hydroxymethyl) cyclobutyl purines and pyrimidines” (E.R. SQUIBB & SONS, INC., priority 1990, dated 1991)
Read-outs that look alike come from different tables or passages of the source.

Key:
Format in all cases: cell-based
[1] = test system: HSV-1 (herpes simplex virus type 1, strain Schooler); test: HSV-1 antiviral plaque reduction assay in cell culture; settings: WI-38 cell culture monolayers, at least 50% plaque reduction, 4 days incubation at 37°C, read-out: ID₅₀(µM) for the following viruses HSV-1
Description: (§1) Assays were performed in cell culture systems to determine the concentrations of compounds that are effective in preventing several kinds of viral infections.
(§2) HSV-1 (herpes simplex virus type 1, strain Schooler), HSV-2 (herpes simplex virus type 2, strain 186), VZV (varicella zoster virus, strain ELLEN), HCMV (human cytomegalovirus, strain AD 169), MuLV (murine leukemia virus, strain CAS).
(§3) HSV-1, HSV-2, HCMV, and VZV antiviral assays: Virus was adsorbed to WI-38 cell culture monolayers in 6 well culture plates (Costar, Cambridge, MA) for 1 hour prior to addition of maintenance medium containing duplicate dilutions of the test compound. Inhibition of plaque development was evaluated on fixed and stained monolayers after 4 days incubation at 37°C for HSV-1 and HSV-2 and after 6-7 days incubation at 37°C for HCMV and VZV. ID₅₀ values were determined from the drug concentration which conferred at least a 50% plaque reduction compared to virus controls.

[2] = test system: HSV-2 (herpes simplex virus type 2, strain 186); test: HSV-2 antiviral plaque reduction assay in cell culture; settings: WI-38 cell culture monolayers, at least 50% plaque reduction, 4 days incubation at 37°C, read-out: ID₅₀(µM) for the following viruses HSV-2
Description: as §1, §2, §3

[3] = test system: VZV (varicella zoster virus, strain ELLEN); test: VZV antiviral plaque reduction assay in cell culture; settings: WI-38 cell culture monolayers, at least 50% plaque reduction, 6-7 days incubation at 37°C, read-out: ID₅₀(µM) for the following viruses VZV
Description: as §1, §2, §3

[4] = test system: HCMV (human cytomegalovirus, strain AD 169); test: HCMV antiviral plaque reduction assay in cell culture; settings: WI-38 cell culture monolayers, at least 50% plaque reduction, 6-7 days incubation at 37°C, read-out: ID₅₀(µM) for the following viruses HCMV
Description: as §1, §2, §3

[5] = test system: MuLV (murine leukemia virus, strain CAS); test: MuLV antiviral assay (XC syncytial plaque assay); settings: SC1, SC-1 cells, XC cell overlay, syncytial plaques counted, read-out: ID₅₀(µM) for the following viruses MuLV
Description: as §1, §2
MuLV antiviral assay: Antiviral assays using MuLV were performed with some modification, as described by Rowe et al. and Shannon et al.. SC-1 cells were planted at approximately 2 x 10⁵ cell per well in 6 well plates. After overnight incubation at 37°C, the cell cultures were sensitised with DEAS-Dextran for one hour at 37°C, rinsed and inoculated with MuLV. Cultures were re-fed with growth medium containing different concentrations of the test compound. After three more days at 37°C, cultures were re-fed with fresh medium plus test compounds and incubated at 37°C for an additional 3 days. Cultures were then washed to remove medium, ultraviolet light irradiated, and planted with approximately 5 x 10⁵ XC cells per well in cell growth medium containing the appropriate concentration of the test compound. […] Finally the cultures were rinsed, stained and syncytial plaques were counted. […]

| SMILES | IC50 ([1]; Human alphaherpesvirus 1, 96 h) [µM] | IC50 ([2]; Human alphaherpesvirus 2, 96 h) [µM] | IC50 ([3]; Human alphaherpesvirus 3) [µM] | IC50 ([4]; Human betaherpesvirus 5) [µM] | IC50 [5] [µM] | IC50 [1] [µM] | IC50 [2] [µM] | IC50 [3] [µM] | IC50 [4] [µM] |
| --- | --- | --- | --- | --- | --- | --- | --- | --- | --- |
| Nc1nc2c(ncn2[C@@H]2[C@@H](F)[C@H](CO)[C@H]2CO)c(=O)[nH]1 (racemic) [Compound I, (1α,2β,3α,4β)-2-Amino-9-[2-fluoro-3,4-bis(hydroxymethyl)cyclobutyl]-1,9-dihydro-6H-purin-6-one] | 0.7 to 1.8 | 0.7 | 1.8 to 3.5 | 3.5 to 35 | 3.5 to 7 | – | – | – | – |
| Nc1ncnc2c1ncn2[C@@H]1[C@@H](F)[C@H](CO)[C@H]1CO (racemic) [Compound III, (1α,2β,3α,4β)-3-(6-Amino-9H-purin-9-yl)-4-fluoro-1,2-cyclobutanedimethanol] | 37 | 7.5 to 19 | 37 | 37 | – | – | – | – | – |
| O=c1[nH]c(=O)n([C@@H]2[C@@H](F)[C@H](CO)[C@H]2CO)cc1/C=C/Br [Compound IV, [1S-(1α(E),2β,3α,4β)]-1-[2-fluoro-3,4-bis(hydroxymethyl)cyclobutyl]-5-(2-bromoethenyl)-2,4-(1H,3H)-pyrimidinedione] | > 286 | > 286 | 28.6 to 286 | > 286 | – | – | – | – | – |
| O=c1[nH]c(=O)n([C@@H]2[C@@H](F)[C@H](CO)[C@H]2CO)cc1/C=C/I [Compound V, [1S-(1α(E),2β,3α,4β)]-1-[2-fluoro-3,4-bis(hydroxymethyl)cyclobutyl]-5-(2-iodoethenyl)-2,4-(1H,3H)-pyrimidinedione] | > 252 | > 252 | 2.5 to 25.2 | > 252 | – | – | – | – | – |
| Nc1nc2c(ncn2[C@@H]2[C@@H](F)[C@H](CO)[C@H]2CO)c(=O)[nH]1 [Compound II, [1S-(1α,2β,3α,4β)]-2-Amino-9-[2-fluoro-3,4-bis(hydroxymethyl)cyclobutyl]-1,9-dihydro-6H-purin-6-one] | – | – | – | – | – | 0.7 to 1.8 | 0.4 to 0.7 | ≤ 0.7 | 18 to 35 |
